The supplement of paper PMC10307832

What was measured:
Test in all cases: relative viability (nuclei count vs DMSO), 5 days (fraction); higher = more cells survive
FH535 + Pictilisib = compound: CC1=C(C=CC(=C1)[N+](=O)[O-])NS(=O)(=O)C2=C(C=CC(=C2)Cl)Cl [FH535] + CS(=O)(=O)N1CCN(Cc2cc3nc(-c4cccc5[nH]ncc45)nc(N4CCOCC4)c3s2)CC1 [Pictilisib] (partner 1 µM)
In short: (§1)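 Lung cancer cell lines were pin-tool dosed in 1536-well plates on the day after seeding, with either a lone drug or a fixed anchor-drug dose plus five library-drug doses (not always all listed) in √10 steps. Nuclei were counted on 4× images after 5 days. Relative viability is the ratio of treated-well to vehicle-well nuclei counts, with each value a median of duplicate plates.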

FH535 + Trametinib = compound: CC1=C(C=CC(=C1)[N+](=O)[O-])NS(=O)(=O)C2=C(C=CC(=C2)Cl)Cl [FH535] + CC(=O)Nc1cccc(-n2c(=O)n(C3CC3)c(=O)c3c(Nc4ccc(I)cc4F)n(C)c(=O)c(C)c32)c1 [Trametinib] (partner 0.02 µM)
In short: as §1

FH535 + AZD7762 = compound: CC1=C(C=CC(=C1)[N+](=O)[O-])NS(=O)(=O)C2=C(C=CC(=C2)Cl)Cl [FH535] + NC(=O)Nc1cc(-c2cccc(F)c2)sc1C(=O)N[C@H]1CCCNC1 [AZD7762] (partner 0.2 µM)
In short: as §1

FH535 + Olaparib = compound: CC1=C(C=CC(=C1)[N+](=O)[O-])NS(=O)(=O)C2=C(C=CC(=C2)Cl)Cl [FH535] + O=C(c1cc(Cc2n[nH]c(=O)c3ccccc23)ccc1F)N1CCN(C(=O)C2CC2)CC1 [Olaparib] (partner 8 µM)
In short: as §1

FH535 + Crizotinib = compound: CC1=C(C=CC(=C1)[N+](=O)[O-])NS(=O)(=O)C2=C(C=CC(=C2)Cl)Cl [FH535] + C[C@@H](Oc1cc(-c2cnn(C3CCNCC3)c2)cnc1N)c1c(Cl)ccc(F)c1Cl [Crizotinib] (partner 1 µM)
In short: as §1

Row | Cell Line | relative viability (FH535 + Pictilisib; first compound 0.04 µM) | relative viability (FH535 + Pictilisib; first compound 0.1265 µM) | relative viability (FH535 + Pictilisib; first compound 0.4 µM) | relative viability (FH535 + Pictilisib; first compound 1.265 µM) | relative viability (FH535 + Trametinib; first compound 0.04 µM) | relative viability (FH535 + Trametinib; first compound 0.1265 µM) | relative viability (FH535 + Trametinib; first compound 0.4 µM) | relative viability (FH535 + Trametinib; first compound 1.265 µM) | relative viability (FH535 + AZD7762; first compound 0.04 µM) | relative viability (FH535 + AZD7762; first compound 0.1265 µM) | relative viability (FH535 + AZD7762; first compound 0.4 µM) | relative viability (FH535 + AZD7762; first compound 1.265 µM) | relative viability (FH535 + Olaparib; first compound 0.04 µM) | relative viability (FH535 + Olaparib; first compound 0.1265 µM) | relative viability (FH535 + Olaparib; first compound 0.4 µM) | relative viability (FH535 + Olaparib; first compound 1.265 µM) | relative viability (FH535 + Crizotinib; first compound 0.04 µM) | relative viability (FH535 + Crizotinib; first compound 0.1265 µM) | relative viability (FH535 + Crizotinib; first compound 0.4 µM) | relative viability (FH535 + Crizotinib; first compound 1.265 µM)
1 | BEN | 0.548 | 0.617 | 0.459 | 0.41 | 0.931 | 0.99 | 0.948 | 0.666 | 0.6 | 0.691 | 0.496 | 0.507 | 1.02 | 1.1 | 0.831 | 0.636 | 0.813 | 0.859 | 0.792 | 0.535
2 | LCLC-103H | 0.598 | 0.608 | 0.561 | 0.535 | 0.711 | 0.665 | 0.707 | 0.5 | 0.737 | 0.734 | 0.744 | 0.67 | 0.757 | 0.774 | 0.75 | 0.474 | 1.04 | 1.11 | 1.02 | 0.844
3 | PC-3 [JPC-3] | 0.746 | 0.902 | 0.698 | 0.47 | 0.726 | 0.829 | 0.691 | 0.607 | 0.773 | 0.83 | 0.656 | 0.508 | 1.12 | 1.08 | 1.04 | 0.733 | 0.957 | 0.981 | 0.885 | 0.531
4 | NCI-H1915 | 0.732 | 0.903 | 0.835 | 0.77 | 0.312 | 0.324 | 0.296 | 0.247 | 0.604 | 0.77 | 0.713 | 0.669 | 0.208 | 0.286 | 0.242 | 0.236 | 0.907 | 0.871 | 0.867 | 0.688
